Legend:
[1] = biological target: T1, recombinant human-MT1 receptor (Homo sapiens, UniProt P48039); assay: In vitro MT1 screening (AequoScreen aequorin luminescence, agonism); format: cell-based; conditions: percentage of activity relative to the reference agonist at the EC100 concentration
T1 construct: expressed in transfected cells; host or cells: unnamed cell line co-expressing mitochondrial apoaequorin and Gα16
Text: To proceed with compound screening over MT1 receptor, a cell line characterised by a stable overexpression of recombinant human-MT1 receptor was used. This line co-expresses mitochondrial apoaequorin and subunit Gα16.
Subunit Gα16 belongs to GPCR superfamily, in which intracellular signal transduction is produced via phospholipase (PLC). Activation of PLC produces an increment of inositol-triphosphate levels and intracellular calcium levels. This increment in calcium levels is, therefore, independent and full compatible with the signal transduction of MT1 receptor.
After binding to calcium, aequorin carries out the oxidation of colenterazine to colenteramide, a luminescent reaction.
Assay protocol for agonist screening consists in an overnight incubation of cells and colenterazine, being performed by an AequoScreen™ system instrument, PerkinElmer, USA. After that this mixture was injected over a plate that contains the solution of the compounds to screen and luminescence was immediately read. Only in case of antagonism screening, after 15-30 min of the first injection the reference agonist was added in the same well, and then luminescence was measured.
Agonist activity was calculated as percentage of activity relative to the reference agonist at the EC100 concentration.

[2] = Plasma drug levels after oral administration; format: in vivo; conditions: male Sprague-Dawley rats; for Ratio 15/60 (plasma level 15 min / 60 min): oral 3 mg/kg; for concentration at 15 min / concentration at 60 min: rat, plasma; for concentration at 15 min: 15 min after oral administration of 3 mg/kg; for concentration at 60 min: 60 min after oral administration of 3 mg/kg
Procedure: The compounds of formula I show the surprising advantage of being maintained at more sustained plasma levels and thus being long acting. This can be evidenced, for instance, by measuring the plasma levels after oral administration to rats at 15 and 60 min after oral administration, resulting in lower ratio values for the compounds of the present invention. Thus the compounds of formula I, characterized in that R2 is an alkyl radical show more sustained plasma levels than prior art compounds (EP1189900B1), wherein R2 is hydrogen. […] Consequently, the present compounds allow for a more efficient therapy: the slow elimination facilitates maintaining a stable plasma concentration at a non-toxic, effective level and the prolonged effect may be expected to result in better compliance of the subject to be treated with the prescribed medication.

T1 sequence (P48039 whole entry): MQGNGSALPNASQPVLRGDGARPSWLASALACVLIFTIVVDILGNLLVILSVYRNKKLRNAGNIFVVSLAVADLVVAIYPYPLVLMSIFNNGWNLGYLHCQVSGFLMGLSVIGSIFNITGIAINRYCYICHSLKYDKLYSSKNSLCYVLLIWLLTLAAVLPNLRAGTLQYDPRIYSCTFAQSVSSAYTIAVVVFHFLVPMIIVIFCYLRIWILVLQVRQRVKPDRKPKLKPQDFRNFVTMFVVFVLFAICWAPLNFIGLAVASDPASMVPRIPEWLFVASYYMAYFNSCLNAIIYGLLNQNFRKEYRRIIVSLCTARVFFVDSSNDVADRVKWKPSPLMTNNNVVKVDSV

Row | Compound | activation at 0.001 µM ([1]; 1 nM compound) [%] | activation at 0.1 µM ([1]; 100 nM compound) [%] | Ratio 15/60 (plasma level 15 min / 60 min) [2] | concentration at 15 min [2] [ng/mL] | concentration at 60 min [2] [ng/mL] | % MT1 at 1 nM (agonism percentage) ([1]; 1 nM compound) [%] | % MT1 at 100 nM (agonism percentage) ([1]; 100 nM compound) [%]
1 | CC(=O)N[C@H]1CCN(c2ccc(F)c3c2CC(C)O3)C1 (stereo partly drawn) [Example 1, N-((3S)-1-(7-fluoro-2-methyl-2,3-dihydrobenzofuran-4-yl)pyrrolidin-3-yl)acetamide] | 19 | 73 | 1.03 | 56.8 | 55.4 | – | –
2 | CC1Cc2c(N3CC[C@H](NC(=O)C4CC4)C3)ccc(F)c2O1 (stereo partly drawn) [Example 7, N-((3S)-1-(7-fluoro-2-methyl-2,3-dihydrobenzofuran-4-yl)pyrrolidin-3-yl)cyclopropanecarboxamide] | 22 | 80 | 0.58 | 5.1 | 8.8 | – | –
3 | CC1Cc2c(N3CC[C@H](NC(=O)C(F)(F)F)C3)ccc(F)c2O1 (stereo partly drawn) [Example 2, 2,2,2-trifluoro-N-((3S)-1-(7-fluoro-2-methyl-2,3-dihydrobenzofuran-4-yl)pyrrolidin-3-yl)acetamide] | 32 | 79 | – | – | – | – | –
4 | CCC(=O)N[C@H]1CCN(c2ccc(F)c3c2CC(C)O3)C1 (stereo partly drawn) [Example 3, N-((3S)-1-(7-fluoro-2-methyl-2,3-dihydrobenzofuran-4-yl)pyrrolidin-3-yl)propionamide] | 30 | 88 | 1.74 | 113 | 64.9 | – | –
5 | CCCCC(=O)N[C@H]1CCN(c2ccc(F)c3c2CC(C)O3)C1 (stereo partly drawn) [Example 8, N-((3S)-1-(7-fluoro-2-methyl-2,3-dihydrobenzofuran-4-yl)pyrrolidin-3-yl)pentanamide] | 31 | 89 | – | – | – | – | –
6 | CCOC(=O)N[C@H]1CCN(c2ccc(F)c3c2CC(C)O3)C1 (stereo partly drawn) [Example 11, Ethyl (3S)-1-(7-fluoro-2-methyl-2,3-dihydrobenzofuran-4-yl)pyrrolidin-3-ylcarbamate] | 28 | 73 | – | – | – | – | –
7 | COc1ccc2[nH]cc(CCNC(C)=O)c2c1 [Melatonin, reference compound] | – | – | 3.49 | 255 | 73 | 42 | 101
8 | CCC(=O)NCC[C@@H]1CCc2ccc3c(c21)CCO3 [Ramelteon, N-[2-[(8S)-1,6,7,8-tetrahydro-2H-indeno[5,4-b]furan-8-yl)ethyl]propionamide, reference compound] | 45 | 118 | 3.94 | 280 | 71 | – | –
9 | CCNC(=O)N[C@H]1CCN(c2ccc(F)c3c2CC(C)O3)C1 (stereo partly drawn) [Example 12, 1-Ethyl-3-((3S)-1-(7-fluoro-2-methyl-2,3-dihydrobenzofuran-4-yl)pyrrolidin-3-yl)urea] | 18 | 90 | – | – | – | – | –
10 | CC1Cc2c(N3CC[C@H](NC(=O)C(C)F)C3)ccc(F)c2O1 (stereo partly drawn) [Example 4, 2-fluoro-N-((3S)-1-(7-fluoro-2-methyl-2,3-dihydrobenzofuran-4-yl)pyrrolidin-3-yl)propanamide] | 44 | 98 | – | – | – | – | –
11 | COC(=O)N[C@H]1CCN(c2ccc(F)c3c2CC(C)O3)C1 (stereo partly drawn) [Example 10, Methyl (3S)-1-(7-fluoro-2-methyl-2,3-dihydrobenzofuran-4-yl)pyrrolidin-3-ylcarbamate] | 36 | 89 | – | – | – | – | –
12 | CCCC(=O)N[C@H]1CCN(c2ccc(F)c3c2CC(C)O3)C1 (stereo partly drawn) [Example 5, N-((3S)-1-(7-fluoro-2-methyl-2,3-dihydrobenzofuran-4-yl)pyrrolidin-3-yl)butyramide] | 32 | 91 | – | – | – | – | –
13 | CCCC1Cc2c(cccc2N2CC[C@H](NC(=O)CC)C2)O1 (stereo partly drawn) [Example 21, N-((3S)-1-(2-propyl-2,3-dihydrobenzofuran-4-yl)pyrrolidin-3-yl)propionamide] | 15 | 78 | 1.59 | 59 | 37 | – | –
14 | CCC(C)C(=O)N[C@H]1CCN(c2ccc(F)c3c2CC(C)O3)C1 (stereo partly drawn) [Example 9, N-((3S)-1-(7-fluoro-2-methyl-2,3-dihydrobenzofuran-4-yl)pyrrolidin-3-yl)-2-methylbutanamide] | 17 | 70 | – | – | – | – | –

More lines, now with the values ahead:

Row | activation at 0.001 µM ([1]; 1 nM compound) [%] | activation at 0.1 µM ([1]; 100 nM compound) [%] | Ratio 15/60 (plasma level 15 min / 60 min) [2] | concentration at 15 min [2] [ng/mL] | concentration at 60 min [2] [ng/mL] | % MT1 at 1 nM (agonism percentage) ([1]; 1 nM compound) [%] | % MT1 at 100 nM (agonism percentage) ([1]; 100 nM compound) [%] | Compound
15 | 17 | 91 | 2.29 | 433 | 189 | – | – | CC(=O)N[C@H]1CCN(c2cccc3c2CC(C)O3)C1 (stereo partly drawn) [Example 13, N-((3S)-1-(2-methyl-2,3-dihydrobenzofuran-4-yl)pyrrolidin-3-yl)acetamide]
16 | 24 | 75 | – | – | – | – | – | CC1Cc2c(N3CC[C@H](NC(=O)C(C)C)C3)ccc(F)c2O1 (stereo partly drawn) [Example 6, N-((3S)-1-(7-fluoro-2-methyl-2,3-dihydrobenzofuran-4-yl)pyrrolidin-3-yl)isobutyramide]
17 | 6 | 79 | 0.47 | 17 | 36 | – | – | CC1Cc2c(cccc2N2CC[C@H](NC(=O)C3CC3)C2)O1 (stereo partly drawn) [Example 17, N-((3S)-1-(2-methyl-2,3-dihydrobenzofuran-4-yl)pyrrolidin-3-yl)cyclopropanecarboxamide]
18 | 26 | 88 | 1.80 | 106 | 59 | – | – | CCC(=O)N[C@H]1CCN(c2cccc3c2CC(CC)O3)C1 (stereo partly drawn) [Example 20, N-((3S)-1-(2-ethyl-2,3-dihydrobenzofuran-4-yl)pyrrolidin-3-yl)propionamide]
19 | 18 | 92 | – | – | – | – | – | CCC(=O)N[C@H]1CCN(c2cccc3c2CC(C)O3)C1 (stereo partly drawn) [Example 15, N-((3S)-1-(2-methyl-2,3-dihydrobenzofuran-4-yl)pyrrolidin-3-yl)propionamide]
20 | 8 | 79 | – | – | – | – | – | CC1Cc2c(cccc2N2CC[C@H](NC(=O)C(F)(F)F)C2)O1 (stereo partly drawn) [Example 14, 2,2,2-trifluoro-N-((3S)-1-(2-methyl-2,3-dihydrobenzofuran-4-yl)pyrrolidin-3-yl)acetamide]
21 | 28 | 82 | – | – | – | – | – | CC(C)CC(=O)N[C@H]1CCN(c2cccc3c2CC(C)O3)C1 (stereo partly drawn) [Example 18, 3-methyl-N-((3S)-1-(2-methyl-2,3-dihydrobenzofuran-4-yl)pyrrolidin-3-yl)butanamide]
22 | 6 | 76 | – | – | – | – | – | CC1Cc2c(cccc2N2CC[C@H](NC(=O)C(C)C)C2)O1 (stereo partly drawn) [Example 16, N-((3S)-1-(2-methyl-2,3-dihydrobenzofuran-4-yl)pyrrolidin-3-yl)isobutyramide]
23 | 23 | 81 | – | – | – | – | – | CCC1Cc2c(cccc2N2CC[C@H](NC(C)=O)C2)O1 (stereo partly drawn) [Example 19, N-((3S)-1-(2-ethyl-2,3-dihydrobenzofuran-4-yl)pyrrolidin-3-yl)acetamide]
